Experimental data taken from patent publication US11420968B2 (priority 2018, dated 2022).

How the values were obtained:
[1] = target: T1, Bcl-2 (Homo sapiens (Human), UniProt P10415); experiment: biochemical; conditions: Biochemical activity (IC50, nM) BCL-2
[2] = tested on: RS4;11 cells
Experimental: Each compound was serially diluted with 1 μM as the maximum concentration. To test the apoptotic effect of the compounds, the cells were seeded at 50,000 in 180 μl per well in 96-well plates and treated with 10-point dilution series of each compound for 48 hours at 37° C. Cell viability was assessed after the treatment using CellTiter-GLO luminescent assay (Promega) according to the manufacturer's recommendations. Briefly, 30 μl of CellTiter-GLO reagent was added into 200 μl of cell culture. Mixture was agitated on an orbital shaker for 5 minutes to ensure cell lysis followed by 7 mins incubation at room temperature to allow development and stabilization of luminescent signals, which corresponded to quantity of ATP and thus the quantity of metabolically active cells. Luminescent signals were measured using PHERAstar FS reader (BMG). Mean IC50 values for cell viability were determined with GraphPad Prism software. […] The anti-proliferative IC50s of these compounds were similarly determined as a percentage of viable cells upon treatment compared to the untreated control using CellTiter-GLO luminescent assay.

[3] = target: T1, Bcl-2

| SMILES | IC50 [1] | folds less potent than its analog in cellular assay [2] | folds less potent than its analog in biochemical assay [3] |
| --- | --- | --- | --- |
| O=C(NS(=O)(=O)c1ccc(NCC2CCOCC2)c([N+](=O)[O-])c1)c1ccc(N2CCC3(CCC(N4CCC[C@H]4c4ccccc4C4CC4)CC3)C2)cc1Oc1cnc2[nH]ccc2c1 (stereo partly drawn) [Example F42, (S)-2-((1H-pyrrolo[2,3-b]pyridin-5-yl)oxy)-4-(8-(2-(2-cyclopropylphenyl)pyrrolidin-1-yl)-2-azaspiro[4.5]decan-2-yl)-N-((3-nitro-4-(((tetrahydro-2H-pyran-4-yl)methyl)amino)phenyl)sulfonyl)benzamide] | 44 nM | – | – |
| O=C(NS(=O)(=O)c1ccc(NCC2CCOCC2)c([N+](=O)[O-])c1)c1ccc(N2CC3(CN(CC4CCCN4c4ccccc4C4CC4)C3)C2)cc1Oc1cnc2[nH]ccc2c1 (stereo not drawn) [Example F114, 2-((1H-pyrrolo[2,3-b]pyridin-5-yl)oxy)-4-(6-((1-(2-cyclopropylphenyl)pyrrolidin-2-yl)methyl)-2,6-diazaspiro[3.3]heptan-2-yl)-N-((3-nitro-4-(((tetrahydro-2H-pyran-4-yl)methyl)amino)phenyl)sulfonyl)benzamide] | – | 15 to 22 folds | 28 to 80 folds |
